Measurements as given in US8242152B2, “Use of 4-[(4-thiazolyl)phenoxy]alkoxy-benzamidine derivatives for the prophylaxis and treatment of osteoporosis” (Dong Wha Pharmaceutical Co., Ltd., priority 2001, dated 2012).
Entries after “also recorded” stand apart in the source; their conditions may differ.

Test system: rabbit osteoclasts
Assay: TRAP(+) MNC formation in isolated rabbit osteoclast cultures, single treatment without LTB4 (Example 6)
Assay type: cell-based
Procedure: Rabbit osteoclasts were isolated as described by Victoria Tai's report (Doctoral Dissertation, 1997, Graduate Department of Pharmacology, University of Toronto) and Rraser P. Coxon et al. (Methods in Molecular Medicine, vol 80). Neonatal rabbits (New Zealand White) were sacrificed by ether-inhaling method under a hood. The removed long bones were dissected free of attached soft tissues and placed into ice-cold PBS. The long bones were cut longitudinally and mechanically curetted in 10 ml medium 199 with antibiotics (10 ug/ml penicillin G and 50 ug/ml gentamycin) in a glass Petri dish. Each bone was curetted with a scalpel blade and was finely minced. The fragments were then vigorously agitated by pipetting up and down using a pasteur pipette and vortex-mixed for 30 seconds. The fragments were allowed to settle and the cell suspension was then transferred to a 50 ml tube and the previous step repeated three times to a total volume of 40 ml. The bone fragments were allowed to settle (>1 min). The cell suspension was then transferred to a new 50 ml tube, passed through a 40 um cell strainer and centrifuged at 200 g for 8 minutes. The supernatant was removed and the pellet was immediately resuspended in α-MEM with 2% FBS (bicarbonate buffered medium).
40 uL droplets of osteoclast-containing suspensions were plated onto 60 mm tissue culture plastic dishes or on dentine slices in 96-well microtiter plates in 2% medium. The cells were allowed ninety minutes for attachment before the addition of 2 mL α-MEM with 2% FBS. After 24 hr culture, cells were washed to remove non-adherent cells and replaced with fresh medium as describes below.
After 24 hr in culture, the medium was replaced with fresh medium containing control, LTB4 receptor antagonists (1000 nM), DW1350 (10, 100 and 1000 nM) or LTB4 (100 nM) and the cultures were continued for an additional 48 hrs.
All cells were cultured at 37° C. in a humidified atmosphere of 95% air and 5% CO2 in bicarbonate buffered medium at pH 7.4.
Differentiated osteoclasts are multinucleated cells and have specific enzyme activity, such as ‘tartrate-resistant acid phosphatase (TRAP)’. Therefore, Osteoclast formation was determined by counting the number of TRAP-positive multinucleated cells (TRAP(+) MNCs).
After culture, the cells were fixed with 10% neutral buffered formalin for 30 min at 4° C., washed twice in distilled water and stained for TRAP activity by incubating with substrate. The number of TRAP(+)MNC with more than 2 nuclei was counted under photomicroscope.
Results were expressed as mean number of TRAP(+)MNC±SD of All experiments were done at least twice. Statistical analysis was performed for each experiment by student t-test.

Cc1nc(-c2ccc(OCCCCCOc3ccc(C(=N)NO)cc3)cc2)c(C(C)C)s1 [DW1350, N-hydroxy-4-{5-[4-(5-isopropyl-2-methyl-1,3-thiazol-4-yl)phenoxy]pentoxy}-benzamidine]
number of TRAP(+) MNCs / osteoclast formation (1000 nM, single treatment without LTB4, dentine slices, 48 hrs (FIG. 3-8)): significant inhibition on the formation of osteoclasts; also recorded: significantly inhibited it
cytotoxic effect based on cell morphology (10˜1000 nM, 48 hours): No cytotoxic effect based on cell morphology was not observed
number of TRAP(+) MNCs (10˜1000 nM, 48 hours, tissue culture dish, single treatment (FIG. 1, 2)): significantly decreased the number of TRAP(+) MNCs in a dose-dependent manner
